From US11419843B2, “Small molecule BCL-2 functional converters as cancer therapeutics” (Oregon State University, priority 2016, dated 2022)
Entries after “also recorded” stand apart in the source; their conditions may differ.

Assays:
Type in all cases: cell-based, human
[1] = test system: MDA-MB-231/Vector and MDA-MB-231/Bcl-2 cells; assay: Viability screening assay in MDA-MB-231 cells with high and low Bcl-2 (CellTiter Glo); settings: for Bcl-2 selective reduction in viability, MDA-MB-231/Bcl-2 vs MDA-MB-231/Vector: 10 μM, 24 h, 10% serum
Method: In one example, a triple negative breast cancer cell line, MDA-MB-231, was used for screening these libraries. […] At the end of the assay, cell viability was determined using the cell titer Glo assay. […] A hit was defined as a compound inducing more than 20% reduction in viability of MDA-MB-231/Bcl-2 cells, compared to vector controls (MDA-MB-231/Vector). In the next step these shortlisted small molecules were tested for their ability to convert the conformation of Bcl-2 into a pro-apoptotic one.
To screen for Bcl-2 selective compounds, MDA-MB-231 cells (MDA-MB-231/Vector and MDA-MB-231/Bcl-2) were plated at 4000 cells per well in a 96 well black opaque plate. The day after plating the cells, treatment from the library plates was done so as to add 1 μL of the compound into the cells, resulting in 10 μM concentration. For non-specific […], 25 nM of staurosporin was used. […] Post treatment viability was assessed by CellTiter Glo Cell Viability assay (Promega Inc., Madison, Wis.) as per manufacturer instructions.
Viability for test compounds in each cell line (MDA-MB-231/Vector and MDA-MB-231/Bcl-2) was normalized to their respective vehicle treatments. Compounds that had at least 20% less viability in the MDA-MB-231/Bcl-2 cell line than the MDA-MB-231/Vector cell line were selected as initial hits and shortlisted for revalidation. Revalidated compounds were reordered for further testing and characterization. All data analyses were performed using Microsoft Excel.

[2] = test system: H460 parental and derived paclitaxel resistant cells; assay: Viability of H460 parental and paclitaxel resistant cells
Method: Percentage viability relative to vehicle treatment was calculated. Representative of three independent assays conducted in triplicate.
FIG. […] Percentage viability relative to vehicle treatment. Representative of three independent assays conducted in triplicate.
Representative of three independent assays conducted in triplicate.
Cell lines were obtained from ATCC and maintained according to manufacturer's instructions. The human lung cancer cell line NCI-H460, H69AR (ATCC) were cultured in RPMI medium (Corning) containing 10% FBS. The human breast cancer cell line MDA-MB-231 was cultured in DMEM medium (Corning) containing 10% FBS. All cell lines were maintained at 5% CO2 and 37° C. Paclitaxel resistant H460 cells were derived by treating cells once a week over 6 weeks, initially with 1 nM paclitaxel and then increasing dose incrementally up to 100 nM. Once resistance was confirmed, paclitaxel was withdrawn from the cells. Resistance to paclitaxel was maintained without presence of paclitaxel measured up to 2 months. A parental line was maintained for a similar number of passages as the resistant line. All experiments were performed using cells that had not been treated with paclitaxel in at least three passages.
Cells of interest were plated at 2000 cells per well in 96-well black tissue culture plate and allowed to adhere to the plate overnight. Viability assays were performed using 10% serum medium unless otherwise stated. Drugs were diluted in supplemented tissue culture medium and added at increasing concentrations, with DMSO as a vehicle control. […] Luminescence was measured using Tropix TR717 Microplate luminometer. Percentage of viable cells is relative to vehicle (100%). As a complementary viability assay, eBioscience Fixable Viability Dye eFluor 660(65-0864) was used to stain dead cells and analyzed using flow cytometry.

[3] = test system: Bcl-2 low and high expressing Jurkat lymphoma cells (Jurkat/Vector, Jurkat/Bcl-2); assay: Cell viability in Bcl-2 low and high expressing Jurkat cells; settings: for Bcl-2 dependent effects in Jurkat Lymphoma cells: Bcl-2 low and high expressing Jurkat lymphoma cells treated for 72 hours with various concentrations; for minimal effective concentration: Homo sapiens, Jurkat lymphoma cells, 72 hours, n/d means no reduction was detected at concentrations tested, read-out: Lowest effective dose (minimal effective concentration that induced Bcl-2-dependent reduction in cell viability); for Effect of Bcl-2 expression on Jurkat cells exposed to cancer therapeutics: Jurkat cells with high and low expression of Bcl-2 (FIG. 9G)
[4] = test system: MDA-MB-468 parental and derived paclitaxel or doxorubicin resistant cells; assay: Viability of MDA-MB-468 parental and derived resistant cells; settings: 72 hours
Method: Percentage viability relative to vehicle treatment. Representative of three independent assays in triplicate.
Percentage viability relative to vehicle treatment.
Percentage viability relative to vehicle treatment. Representative of three independent assays conducted in triplicate.
Cells of interest were plated at 2000 cells per well in 96-well black tissue culture plate and allowed to adhere to the plate overnight. Viability assays were performed using 10% serum medium unless otherwise stated. Drugs were diluted in supplemented tissue culture medium and added at increasing concentrations, with DMSO as a vehicle control. Cells were then incubated for either 48 hour or 72 hours in presence of the compound, Promega Titer Glo was added to the wells at the assay end point according to manufacturer's protocol. Luminescence was measured using Tropix TR717 Microplate luminometer. Percentage of viable cells is relative to vehicle (100%). As a complementary viability assay, eBioscience Fixable Viability Dye eFluor 660(65-0864) was used to stain dead cells and analyzed using flow cytometry.

[5] = test system: H460 parental and resistant cells; assay: Annexin-V apoptosis assay in H460 parental and resistant cells; settings: 10 nM paclitaxel, 48 hours
Method: FIG. 25E is the results of Annexin-V apoptosis assay in H460 cells treated for 48 hours with vehicle or paclitaxel 10 nM, quantification right panel.
Cells were seeded into 6 well tissue culture plates to give approximately 50% confluence and allowed to attach overnight. The cells were then treated for a period of time indicated in figure legend with the appropriate compound at various concentrations (see figure legends). An Annexin V-conjugate PerCP-eFluor 710 apoptosis detection kit was used as described by the manufacturer's protocol (eBioscience 88-8008). Harvesting of cells included collection of floating and attached cells following trypsinization. Data were acquired using an CytoFLEX S flow cytometer (Beckman Coulter, Brea, Calif.) and 10,000 events on the PC5.5 channel were analyzed using CytExpert software (Beckman Coulter). For Nur77 GFP tagged annexin V analysis, GFP positive population were selected and then Annexin V+population was determined. For each sample, 10,000 GFP+ events were collected. Annexin V positive cell population was considered to be the apoptotic population, and the percent of annexin V positive cell population was used to determine the extent of apoptosis.

[6] = test system: H460 parental and resistant cells; assay: Colony formation (2D clonogenic, 3D soft agar) of H460 parental and resistant cells; settings: 10 nM paclitaxel, continuously for 14 days
Description: Colony forming ability (%) relative to vehicle treatment. Representative of three independent conducted assays in triplicate.

Compound | Bcl-2 dependent effects in Jurkat Lymphoma cells [3] | minimal effective concentration [3] | also measured
COc1ccc([N+](=O)[O-])cc1CSc1nc2sc3c(c2c(=O)n1-c1ccccc1)CCCC3 [BFC1111, 2-[(2-methoxy-5-nitrobenzyl)thio]-3-phenyl-5,6,7,8-tetrahydro[1] benzothieno[2,3-d]pyrimidin-4(3H)-one] |  |  | Bcl-2 selective reduction in viability, MDA-MB-231/Bcl-2 vs MDA-MB-231/Vector ([1]; listed as BFC1110-A): good Bcl-2 dependent effects in MDA-MB-231 cells; also recorded: comparable Bcl-2 selective induction of cell death as the parent BFC1110; Viability of H460 resistant vs parental line ([2]; 72 hours): reduced viability of resistant line preferentially
CN(Cc1cnc2nc(N)nc(N)c2n1)c1ccc(C(=O)N[C@@H](CCC(=O)O)C(=O)O)c2ccccc12 [Compound 11] | Yes | 0.001 µM | 
COc1cccc2c1C(=O)c1c(O)c3c(c(O)c1C2=O)C[C@@](O)(C(=O)CO)C[C@@H]3O[C@H]1C[C@H](N)[C@H](O)[C@H](C)O1 [doxorubicin, reference compound] |  |  | Cross-resistance of MDA-MB-468 paclitaxel-resistant line [4]: cross-resistant; Susceptibility of H460 paclitaxel resistant line (cross resistance) ([2]; viability assays and colony formation assays): paclitaxel resistant line was also less susceptible to doxorubicin treatment; Effect of Bcl-2 expression on Jurkat cells exposed to cancer therapeutics [3]: Bcl-2 expression protected Jurkat cells
CS(=O)(=O)CCNCc1ccc(-c2ccc3ncnc(Nc4ccc(OCc5cccc(F)c5)c(Cl)c4)c3c2)o1 [lapatinib, reference compound] |  |  | Effect of Bcl-2 expression on Jurkat cells exposed to cancer therapeutics [3]: Bcl-2 expression protected Jurkat cells
2-Iodo acetamide [Iodoacetamide, reference compound] |  |  | Bcl-2 selective reduction in viability, MDA-MB-231/Bcl-2 vs MDA-MB-231/Vector [1]: selectively induce more cell death in high-Bcl-2 expressing MDA-MB-231 cells
Nc1nc(N)c2nc(CNc3ccc(C(=O)N[C@@H](CCC(=O)O)C(=O)O)cc3)cnc2n1 [Compound 1] | Yes | 0.01 µM | 
Nc1ccn([C@@H]2O[C@H](CO)[C@@H](O)C2(F)F)c(=O)n1 [gemcitabine, reference compound] |  |  | Effect of Bcl-2 expression on Jurkat cells exposed to cancer therapeutics [3]: Bcl-2 expression protected Jurkat cells
Cc1cc(C(=O)O)cc(C)c1N(C)Cc1cnc2nc(N)nc(N)c2n1 [Compound 7] | No |  | 
C=CCN(Cc1cnc2nc(N)nc(N)c2n1)c1ccc(C(=O)N[C@@H](CCC(=O)O)C(=O)O)cc1 [Compound 8] | Yes | 0.01 µM | 
Nc1nc(N)c2nc(CNc3ccc(C(=O)N[C@@H](CC(=O)O)C(=O)O)cc3)cnc2n1 [Compound 3] | Yes | 10 µM | 
O=c1[nH]cc(F)c(=O)[nH]1 [5-fluoro uracil, reference compound] |  |  | Cross-resistance of MDA-MB-468 paclitaxel-resistant line [4]: cross-resistant; Effect of Bcl-2 expression on Jurkat cells exposed to cancer therapeutics [3]: Bcl-2 expression protected Jurkat cells
Nc1nc(N)c2nc3c(nc2n1)C(=O)N(c1ccc(C(=O)O)cc1)C3 [Compound 12] | No |  | 
CC(Nc1ccc(C(=O)N[C@@H](CCC(=O)O)C(=O)O)cc1)c1cnc2nc(N)nc(O)c2n1 (some centres unmarked) [Compound 4] | No |  | 
O=P1(N(CCCl)CCCl)NCCCO1 (centres unmarked) [cyclophosphamide, reference compound] |  |  | Effect of Bcl-2 expression on Jurkat cells exposed to cancer therapeutics [3]: Bcl-2 expression protected Jurkat cells
Nc1nc(N)c2nc(CC3CCCc4cc(C(=O)N[C@@H](CCC(=O)O)C(=O)O)ccc43)cnc2n1 (some centres unmarked) [Compound 10] | Yes | 0.1 µM | 
CC(=O)O[C@H]1C(=O)[C@@]2(C)[C@H]([C@H](OC(=O)c3ccccc3)[C@]3(O)C[C@H](OC(=O)[C@H](O)[C@@H](NC(=O)c4ccccc4)c4ccccc4)C(C)=C1C3(C)C)[C@]1(OC(C)=O)CO[C@@H]1C[C@@H]2O [paclitaxel, reference compound] |  |  | Induction of apoptosis (Annexin V), H460 resistant vs parental [5]: minimal induction of apoptosis in the derived H460 resistant line compared to parental sensitive line; Viability of MDA-MB-231 cells expressing pcDNA vector or Bcl-2 ([1]; paclitaxel 10 nM): reduced viability of MDA-MB-231 cells transfected with pcDNA vector, while Bcl-2 transfected MDA-MB-231 cells were partially resistant; Viability of MDA-MB-468 parental and paclitaxel resistant lines ([4]; paclitaxel): derived resistant line viability was unaffected by 50 nM, however parental line was sensitive; Colony formation in 2D and 3D soft agar assays, H460 parental and resistant [6]: inhibited the parental cells ability to form colonies in 2D and 3D soft agar assays, while resistant lines tumorigenicity was unchanged; Reduction of viability of H460 parental cells ([2]; paclitaxel, 72 hours): 90%; Viability of H460 paclitaxel resistant line ([2]; paclitaxel, 72 hours): unaffected
CN(Cc1cnc2nc(N)nc(N)c2n1)c1cc(Cl)c(C(=O)N[C@@H](CCC(=O)O)C(=O)O)c(Cl)c1 [Compound 9] | Yes | 1 µM | 
CN(Cc1cnc2nc(N)nc(N)c2n1)c1ccc(C(=O)N[C@@H](CCC(=O)O)C(=O)O)cc1F [Compound 5] | Yes | 0.01 µM | 
CN(Cc1cnc2nc(N)nc(N)c2n1)c1c(Cl)cc(C(=O)N[C@@H](CCC(=O)O)C(=O)O)cc1Cl [Compound 2] | Yes | 0.001 µM | 
CN(Cc1cnc2nc(N)nc(N)c2n1)c1c(F)cc(C(=O)N[C@@H](CCC(=O)O)C(=O)O)cc1F [Compound 6] | Yes | 0.01 µM | 
